Results: PubChem BioAssay (NCI)
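Results reflect a 48-hour exposure of cells in 96-well plates to compound at five concentrations. GI50 is the concentration that inhibits growth by half. TGI: total growth inhibition.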

Key:
Assay in all cases: DTP human tumour cell line panel, 48 h
786-0 renal = system: 786-0 renal
A498 renal = system: A498 renal
A549 NSCLC = system: A549 NSCLC
ACHN renal = system: ACHN renal
BT-549 breast = system: BT-549 breast
CAKI-1 renal = system: CAKI-1 renal
CCRF-CEM leukemia = system: CCRF-CEM leukemia
COLO 205 colon = system: COLO 205 colon
DU-145 prostate = system: DU-145 prostate
EKVX NSCLC = system: EKVX NSCLC
HCC-2998 colon = system: HCC-2998 colon
HCT-116 colon = system: HCT-116 colon
HCT-15 colon = system: HCT-15 colon
HOP-62 NSCLC = system: HOP-62 NSCLC
HOP-92 NSCLC = system: HOP-92 NSCLC
HS 578T breast = system: HS 578T breast
HT29 colon = system: HT29 colon
IGROV1 ovarian = system: IGROV1 ovarian
K-562 leukemia = system: K-562 leukemia
KM12 colon = system: KM12 colon
LOX IMVI melanoma = system: LOX IMVI melanoma
M14 melanoma = system: M14 melanoma
MALME-3M melanoma = system: MALME-3M melanoma
MCF7 breast = system: MCF7 breast
MDA-MB-231 breast = system: MDA-MB-231 breast
MDA-MB-435 = system: MDA-MB-435
MDA-MB-468 breast = system: MDA-MB-468 breast
MOLT-4 leukemia = system: MOLT-4 leukemia
NCI-H226 lung = system: NCI-H226 lung
NCI-H23 lung = system: NCI-H23 lung
NCI-H460 lung = system: NCI-H460 lung
NCI-H522 lung = system: NCI-H522 lung
NCI/ADR-RES ovarian = system: NCI/ADR-RES ovarian
OVCAR-3 ovarian = system: OVCAR-3 ovarian
OVCAR-4 ovarian = system: OVCAR-4 ovarian
OVCAR-5 ovarian = system: OVCAR-5 ovarian
OVCAR-8 ovarian = system: OVCAR-8 ovarian
PC-3 prostate = system: PC-3 prostate
RPMI-8226 leukemia = system: RPMI-8226 leukemia
RXF 393 renal = system: RXF 393 renal
SF-268 CNS = system: SF-268 CNS
SF-295 CNS = system: SF-295 CNS
SF-539 CNS = system: SF-539 CNS
SK-MEL-2 melanoma = system: SK-MEL-2 melanoma
SK-MEL-28 melanoma = system: SK-MEL-28 melanoma
SK-MEL-5 melanoma = system: SK-MEL-5 melanoma
SK-OV-3 ovarian = system: SK-OV-3 ovarian
SN12C renal = system: SN12C renal
SNB-19 CNS = system: SNB-19 CNS
SW-620 colon = system: SW-620 colon
T-47D breast = system: T-47D breast
TK-10 renal = system: TK-10 renal
U251 CNS = system: U251 CNS
UACC-257 melanoma = system: UACC-257 melanoma
UACC-62 melanoma = system: UACC-62 melanoma
UO-31 renal = system: UO-31 renal

Cn1cc(-c2cc3nc(-c4cn(C)c5ncccc45)cc(N)n3n2)c2cc(Cl)ccc21
GI50 (786-0 renal): 1650 nM | TGI (786-0 renal): 3030 nM | GI50 (A498 renal): 1900 nM | TGI (A498 renal): 5370 nM | GI50 (A549 NSCLC): 2870 nM | TGI (A549 NSCLC): 12000 nM | GI50 (ACHN renal): 1860 nM | TGI (ACHN renal): 3530 nM | GI50 (BT-549 breast): 1590 nM | TGI (BT-549 breast): 3090 nM | GI50 (CAKI-1 renal): 1850 nM | TGI (CAKI-1 renal): 4380 nM | GI50 (CCRF-CEM leukemia): 2580 nM | TGI (CCRF-CEM leukemia): > 100000 nM | GI50 (COLO 205 colon): 1770 nM | TGI (COLO 205 colon): 3240 nM | GI50 (DU-145 prostate): 2540 nM | TGI (DU-145 prostate): 7060 nM | GI50 (EKVX NSCLC): 1680 nM | TGI (EKVX NSCLC): 3510 nM | GI50 (HCC-2998 colon): 1710 nM | TGI (HCC-2998 colon): 3120 nM | GI50 (HCT-116 colon): 1620 nM | TGI (HCT-116 colon): 2980 nM | GI50 (HCT-15 colon): 1890 nM | TGI (HCT-15 colon): 4360 nM | GI50 (HOP-62 NSCLC): 1960 nM | TGI (HOP-62 NSCLC): 4210 nM | GI50 (HOP-92 NSCLC): 2160 nM | TGI (HOP-92 NSCLC): 4140 nM | GI50 (HS 578T breast): 2100 nM | TGI (HS 578T breast): 5250 nM | GI50 (HT29 colon): 1980 nM | TGI (HT29 colon): 4100 nM | GI50 (IGROV1 ovarian): 1870 nM | TGI (IGROV1 ovarian): 3490 nM | GI50 (K-562 leukemia): 1750 nM | TGI (K-562 leukemia): 4410 nM | GI50 (KM12 colon): 2140 nM | TGI (KM12 colon): 4760 nM | GI50 (LOX IMVI melanoma): 1770 nM | TGI (LOX IMVI melanoma): 3160 nM | GI50 (M14 melanoma): 1670 nM | TGI (M14 melanoma): 3140 nM | GI50 (MALME-3M melanoma): 1710 nM | TGI (MALME-3M melanoma): 3150 nM | GI50 (MCF7 breast): 1830 nM | TGI (MCF7 breast): 4310 nM | GI50 (MDA-MB-231 breast): 1760 nM | TGI (MDA-MB-231 breast): 3230 nM | GI50 (MDA-MB-435): 1710 nM | TGI (MDA-MB-435): 3290 nM | GI50 (MDA-MB-468 breast): 1500 nM | TGI (MDA-MB-468 breast): 2860 nM | GI50 (MOLT-4 leukemia): 2020 nM | TGI (MOLT-4 leukemia): 5110 nM | GI50 (NCI-H226 lung): 2020 nM | TGI (NCI-H226 lung): 4640 nM | GI50 (NCI-H23 lung): 2320 nM | TGI (NCI-H23 lung): 6470 nM | GI50 (NCI-H460 lung): 1880 nM | TGI (NCI-H460 lung): 3670 nM | GI50 (NCI-H522 lung): 1770 nM | TGI (NCI-H522 lung): 3330 nM | GI50 (NCI/ADR-RES ovarian): 2250 nM | TGI (NCI/ADR-RES ovarian): 5300 nM | GI50 (OVCAR-3 ovarian): 1910 nM | TGI (OVCAR-3 ovarian): 3590 nM | GI50 (OVCAR-4 ovarian): 2030 nM | TGI (OVCAR-4 ovarian): 4740 nM | GI50 (OVCAR-5 ovarian): 1850 nM | TGI (OVCAR-5 ovarian): 4480 nM | GI50 (OVCAR-8 ovarian): 2130 nM | TGI (OVCAR-8 ovarian): 4820 nM | GI50 (PC-3 prostate): 2210 nM | TGI (PC-3 prostate): 7600 nM | GI50 (RPMI-8226 leukemia): 2400 nM | TGI (RPMI-8226 leukemia): 6400 nM | GI50 (RXF 393 renal): 1530 nM | TGI (RXF 393 renal): 2970 nM | GI50 (SF-268 CNS): 2130 nM | TGI (SF-268 CNS): 4830 nM | GI50 (SF-295 CNS): 1770 nM | TGI (SF-295 CNS): 3410 nM | GI50 (SF-539 CNS): 1730 nM | TGI (SF-539 CNS): 3150 nM | GI50 (SK-MEL-2 melanoma): 1910 nM | TGI (SK-MEL-2 melanoma): 3690 nM | GI50 (SK-MEL-28 melanoma): 1650 nM | TGI (SK-MEL-28 melanoma): 3040 nM | GI50 (SK-MEL-5 melanoma): 1590 nM | TGI (SK-MEL-5 melanoma): 2960 nM | GI50 (SK-OV-3 ovarian): 2020 nM | TGI (SK-OV-3 ovarian): 4080 nM | GI50 (SN12C renal): 1630 nM | TGI (SN12C renal): 3090 nM | GI50 (SNB-19 CNS): 3230 nM | TGI (SNB-19 CNS): 9760 nM | GI50 (SW-620 colon): 1800 nM | TGI (SW-620 colon): 3530 nM | GI50 (T-47D breast): 1800 nM | TGI (T-47D breast): 4040 nM | GI50 (TK-10 renal): 1910 nM | TGI (TK-10 renal): 6910 nM | GI50 (U251 CNS): 2180 nM | TGI (U251 CNS): 5030 nM | GI50 (UACC-257 melanoma): 1720 nM | TGI (UACC-257 melanoma): 3340 nM | GI50 (UACC-62 melanoma): 1600 nM | TGI (UACC-62 melanoma): 3040 nM | GI50 (UO-31 renal): 1620 nM | TGI (UO-31 renal): 3310 nM
